SMILES strings stand for the structures. Counter-ions that a name gives are not always drawn. Like-named read-outs stand apart in the source and are kept apart here.

Data on 13 molecules can be found in patent publication US6258829A, “Cycloalka[b]pyridine-3-carbonylguanidine derivatives, process for producing the same, and drugs containing the same” (priority 1997, dated 2001).

The test system of data set [1] is Na^+ /H^+ exchange transport. Particulars: background statement, Circulation, 79, 1257 (1989); cited from earlier work.
For data set [2] the following is noted: background statement; cited from earlier work.
Data set [3] has as its target T1, Na^+ /H^+ exchange transport (rat platelets) (Rattus norvegicus, UniProt P26431).
T1 construct: the thus collected supernatant was used as platelet rich plasma; endogenous in cells; host or cells: platelets (platelet rich plasma) of Wistar rat
Description: Inhibition studies on Na^+ /H^+ exchange transport: swelling of rat platelets induced by sodium propionate. Conditions: rat platelet swelling, sodium propionate buffer pH 6.7, 20 seconds; 300 μM amiloride = 100% inhibition; read-out: IC5O value (inhibitory actions of test compounds on Na^+ /H^+ exchange transport). It counts as cell-based, rat (Wistar). The protocol: The Na^+ /H^+ exchange transport inhibitory activity was measured in accordance with the method of Scholz et al. [Br. J. Pharmacol., 109, 562 (1993)], using the swelling of rat platelets induced by sodium propionate as an index.
Under ether anesthesia, blood sample (8 ml) was collected from the abdominal aorta of Wistar rat and mixed with 1 ml of acid citrate dextrose as an anticoagulant. The resulting mixture was immediately centrifuged at 90×g for 10 minutes, and the thus collected supernatant was used as platelet rich plasma. Next, the thus prepared platelet rich plasma (10×10^6 platelets/50 μl) was added to 250 μl of 140 mM sodium propionate buffer (pH 6.7, 1% dimethyl sulfoxide in final concentration) containing each test compound dissolved in dimethyl sulfoxide, and the decrease in absorbance caused by the swelling of platelets was periodically measured using Hema-Tracer (manufactured by Nk).
The decreased absorbance ratio 20 seconds after the addition of platelet rich plasma was measured as the Na^+ /H^+ exchange activity, and the inhibitory activity of each test compound was expressed as relative activity when the action of 300 μM amiloride was defined as 100% inhibition.
In this case, each test result was evaluated from 50% inhibition concentration (IC50 value) by using probit methods.

For data set [4], the system named is male SD rats. The arrangement: species or system rat (SD). Particulars: rat, in vivo, iv, 100 mg/kg.
The test system of data set [5] is male SD rats. Further details: species or system rat (SD). Conditions: rat, in vivo, iv, 10 mg/kg.

T1 sequence (P26431 whole entry): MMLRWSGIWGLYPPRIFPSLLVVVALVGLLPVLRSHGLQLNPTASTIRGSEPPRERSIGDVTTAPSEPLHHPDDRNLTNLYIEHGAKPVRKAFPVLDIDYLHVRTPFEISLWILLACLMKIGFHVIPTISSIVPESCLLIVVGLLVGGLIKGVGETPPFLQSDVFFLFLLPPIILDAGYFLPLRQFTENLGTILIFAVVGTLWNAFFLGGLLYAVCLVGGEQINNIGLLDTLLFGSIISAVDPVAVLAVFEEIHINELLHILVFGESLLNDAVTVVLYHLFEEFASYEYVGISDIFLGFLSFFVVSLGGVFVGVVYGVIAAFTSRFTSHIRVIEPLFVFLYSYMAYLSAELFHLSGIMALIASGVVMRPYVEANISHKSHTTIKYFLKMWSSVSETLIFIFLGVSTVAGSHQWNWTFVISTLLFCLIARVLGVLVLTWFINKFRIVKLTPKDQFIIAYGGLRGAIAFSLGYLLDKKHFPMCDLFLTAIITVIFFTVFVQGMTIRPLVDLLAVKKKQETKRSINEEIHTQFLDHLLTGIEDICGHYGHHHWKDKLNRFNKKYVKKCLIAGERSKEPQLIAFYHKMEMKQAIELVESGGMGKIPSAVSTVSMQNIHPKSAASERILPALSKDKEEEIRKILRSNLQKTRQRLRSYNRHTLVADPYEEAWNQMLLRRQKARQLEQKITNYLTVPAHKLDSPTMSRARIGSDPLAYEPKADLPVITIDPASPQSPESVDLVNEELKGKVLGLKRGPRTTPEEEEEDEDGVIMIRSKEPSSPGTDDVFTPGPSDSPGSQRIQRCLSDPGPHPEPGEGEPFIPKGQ

Take `N=C(N)NC(=O)c1nc(Cl)c(N)nc1N` [amiloride]: the “Na^+ /H^+ exchange transport inhibitory action” value in data set [1] is given as “has a Na^+ /H^+ exchange transport inhibitory action”. In data set [2], the accompanying actions result was “accompanies hypotensive action and salt excretion action”; the anti-arrhythmic action entry is reported as “weak”.
As to `CCc1nc2c(cc1C(=O)N=C(N)N)CCCCC2` [Compound C, 2-Ethyl-6,7,8,9-tetrahydro-5H-cyclohepta[b]pyridine-3-carbonylguanidine], the IC50 in data set [3] is not above 99 nM.
On the same count and under the same terms, with `COC1CCCCc2cc(C(=O)N=C(N)N)c(C)nc21` (stereo not drawn) [Compound F, 9-Methoxy-2-methyl-6,7,8,9-tetrahydro-5H-cyclohepta[b]pyridine-3-carbonylguanidine] the figure was not above 99 nM.
The same measure, in the same setting: with `COc1nc2c(cc1C(=O)N=C(N)N)CCCCC2` [Compound I, 2-Methoxy-6,7,8,9-tetrahydro-5H-cyclohepta[b]pyridine-3-carbonylguanidine] the figure was not below 1000 nM; with `Cc1nc2c(cc1C(=O)N=C(N)N)CCCC=C2` [Compound K, 2-Methyl-6,7-dihydro-5H-cyclohepta[b]pyridine-3-carbonylguanidine], not above 99 nM.
On the same count and under the same terms, as for `Cc1nc2c(cc1C(=O)N=C(N)N)CCCCC2C` (stereo not drawn) [Compound E, 2,9-Dimethyl-6,7,8,9-tetrahydro-5H-cyclohepta[b]pyridine-3-carbonylguanidine], the figure is not above 99 nM.
Turning to `Cc1nc2c(cc1C(=O)N=C(N)N)CCCC=C2` [maleic acid salt of the compound (K), 2-Methyl-6,7-dihydro-5H-cyclohepta[b]pyridine-3-carbonylguanidine maleate], in the data set on male SD rats [4], the death cases result is recorded as “no death cases were found” and the “toxic changes attributable to the compound (K)” value is “no toxic changes attributable to the compound (K) were observed”. In the data set with male SD rats [5], the death cases result is “no death cases were found” and the “toxic changes attributable to the compound (K)” value is “no toxic changes attributable to the compound (K) were observed”.
As to `Cc1nc2c(cc1C(=O)N=C(N)N)CC(C)CC2` (stereo not drawn) [Compound B, 2,6-Dimethyl-5,6,7,8-tetrahydrocyclohexa[b]pyridine-3-carbonylguanidine], in data set [3], the IC50 was not above 99 nM.
For the molecule `Cc1nc2c(cc1C(=O)N=C(N)N)CCCC2O` (stereo not drawn) [Compound A, 8-Hydroxy-2-methyl-5,6,7,8-tetrahydrocyclohexa[b]pyridine-3-carbonylguanidine], in data set [3], the IC50 fell in the range of 100 to 990 nM.
The same measure, in the same setting: as for `NC(N)=NC(=O)c1cc2c(nc1-c1cccnc1)CCCCC2` [Compound J, 2-(3-Pyridyl)-6,7,8,9-tetrahydro-5H-cyclohepta[b]pyridine-3-carbonylguanidine], the figure is not below 1000 nM.
Same read-out and setting: as for `NC(N)=NC(=O)c1cc2c(nc1C(F)(F)F)CCCCC2` [Compound G, 2-Trifluoromethyl-6,7,8,9-tetrahydro-5H-cyclohepta[b]pyridine-3-carbonylguanidine], the figure is 100 to 990 nM.
Same read-out and setting: as for `NC(N)=NC(=O)c1cc2c(nc1Cl)CCCCC2` [Compound H, 2-Chloro-6,7,8,9-tetrahydro-5H-cyclohepta[b]pyridine-3-carbonylguanidine], the figure is not above 99 nM; as for `Cc1nc2c(cc1C(=O)N=C(N)N)C(O)CCCC2` (stereo not drawn) [Compound D, 5-Hydroxy-2-methyl-6,7,8,9-tetrahydro-5H-cyclohepta[b]pyridine-3-carbonylguanidine], 100 to 990 nM.
